Source: paper doi:10.1101/2023.11.24.568596v1 (biorxiv, 2023)
Each block holds one compound with its values, some of them ahead of it.

How the values were obtained:
Conditions in all cases: binder
[1] = target: T1, MARK4 (Homo sapiens, UniProt Q96L34)
T1 sequence (Q96L34 1-752): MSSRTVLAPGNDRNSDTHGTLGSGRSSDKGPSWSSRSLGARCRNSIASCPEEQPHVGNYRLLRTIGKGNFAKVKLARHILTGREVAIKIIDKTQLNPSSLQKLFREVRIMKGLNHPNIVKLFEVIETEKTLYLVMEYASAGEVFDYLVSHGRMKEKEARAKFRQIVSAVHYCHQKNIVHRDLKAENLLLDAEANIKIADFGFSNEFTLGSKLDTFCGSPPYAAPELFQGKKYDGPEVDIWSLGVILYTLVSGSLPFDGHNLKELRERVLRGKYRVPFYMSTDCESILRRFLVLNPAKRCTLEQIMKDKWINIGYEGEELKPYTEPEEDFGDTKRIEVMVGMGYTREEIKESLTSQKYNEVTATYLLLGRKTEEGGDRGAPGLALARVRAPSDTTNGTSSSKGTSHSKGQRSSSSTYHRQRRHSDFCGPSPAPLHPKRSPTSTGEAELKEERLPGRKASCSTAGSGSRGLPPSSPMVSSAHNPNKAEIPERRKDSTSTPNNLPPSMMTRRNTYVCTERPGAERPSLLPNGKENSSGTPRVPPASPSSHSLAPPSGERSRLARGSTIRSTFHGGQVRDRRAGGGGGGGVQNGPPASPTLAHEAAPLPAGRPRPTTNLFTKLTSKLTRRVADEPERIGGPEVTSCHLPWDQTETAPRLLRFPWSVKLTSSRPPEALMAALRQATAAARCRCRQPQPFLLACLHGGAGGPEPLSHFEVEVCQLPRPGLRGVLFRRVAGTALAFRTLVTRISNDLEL

[2] = target: T2, DYRK2 (Homo sapiens, UniProt Q92630)
T2 sequence (Q92630 1-601): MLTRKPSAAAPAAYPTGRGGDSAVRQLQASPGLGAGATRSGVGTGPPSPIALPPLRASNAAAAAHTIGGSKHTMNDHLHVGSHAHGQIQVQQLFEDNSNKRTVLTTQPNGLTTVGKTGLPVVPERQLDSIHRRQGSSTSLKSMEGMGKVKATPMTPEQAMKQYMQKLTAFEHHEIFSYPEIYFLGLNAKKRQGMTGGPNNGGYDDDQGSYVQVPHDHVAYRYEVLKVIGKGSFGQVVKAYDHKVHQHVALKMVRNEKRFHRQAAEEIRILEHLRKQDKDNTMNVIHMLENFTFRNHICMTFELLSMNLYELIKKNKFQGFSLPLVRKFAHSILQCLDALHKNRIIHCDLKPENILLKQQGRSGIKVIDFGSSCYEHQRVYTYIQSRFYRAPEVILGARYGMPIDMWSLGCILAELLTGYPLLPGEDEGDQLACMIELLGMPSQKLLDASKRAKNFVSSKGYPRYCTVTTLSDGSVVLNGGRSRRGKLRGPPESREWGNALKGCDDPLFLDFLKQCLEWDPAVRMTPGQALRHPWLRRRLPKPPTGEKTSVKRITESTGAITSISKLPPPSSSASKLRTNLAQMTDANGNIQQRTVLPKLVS

[3] = target: JNK3 (Homo sapiens, UniProt P53779)
Chain of JNK3 (P53779 whole entry): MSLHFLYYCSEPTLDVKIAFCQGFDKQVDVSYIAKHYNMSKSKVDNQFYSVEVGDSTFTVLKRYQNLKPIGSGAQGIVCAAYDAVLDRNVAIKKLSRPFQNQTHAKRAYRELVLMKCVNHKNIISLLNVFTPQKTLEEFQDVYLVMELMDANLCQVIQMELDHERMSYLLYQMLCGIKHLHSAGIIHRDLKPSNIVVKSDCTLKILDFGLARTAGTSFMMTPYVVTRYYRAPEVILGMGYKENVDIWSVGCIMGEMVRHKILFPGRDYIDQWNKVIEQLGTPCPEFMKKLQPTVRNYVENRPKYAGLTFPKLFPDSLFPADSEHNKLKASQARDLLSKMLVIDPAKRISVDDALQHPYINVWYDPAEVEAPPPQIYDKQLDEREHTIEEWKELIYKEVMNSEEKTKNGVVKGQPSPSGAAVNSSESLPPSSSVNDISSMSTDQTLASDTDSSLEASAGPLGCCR

[4] = target: LOK (Homo sapiens, UniProt O94804)
Chain of LOK (O94804 whole entry): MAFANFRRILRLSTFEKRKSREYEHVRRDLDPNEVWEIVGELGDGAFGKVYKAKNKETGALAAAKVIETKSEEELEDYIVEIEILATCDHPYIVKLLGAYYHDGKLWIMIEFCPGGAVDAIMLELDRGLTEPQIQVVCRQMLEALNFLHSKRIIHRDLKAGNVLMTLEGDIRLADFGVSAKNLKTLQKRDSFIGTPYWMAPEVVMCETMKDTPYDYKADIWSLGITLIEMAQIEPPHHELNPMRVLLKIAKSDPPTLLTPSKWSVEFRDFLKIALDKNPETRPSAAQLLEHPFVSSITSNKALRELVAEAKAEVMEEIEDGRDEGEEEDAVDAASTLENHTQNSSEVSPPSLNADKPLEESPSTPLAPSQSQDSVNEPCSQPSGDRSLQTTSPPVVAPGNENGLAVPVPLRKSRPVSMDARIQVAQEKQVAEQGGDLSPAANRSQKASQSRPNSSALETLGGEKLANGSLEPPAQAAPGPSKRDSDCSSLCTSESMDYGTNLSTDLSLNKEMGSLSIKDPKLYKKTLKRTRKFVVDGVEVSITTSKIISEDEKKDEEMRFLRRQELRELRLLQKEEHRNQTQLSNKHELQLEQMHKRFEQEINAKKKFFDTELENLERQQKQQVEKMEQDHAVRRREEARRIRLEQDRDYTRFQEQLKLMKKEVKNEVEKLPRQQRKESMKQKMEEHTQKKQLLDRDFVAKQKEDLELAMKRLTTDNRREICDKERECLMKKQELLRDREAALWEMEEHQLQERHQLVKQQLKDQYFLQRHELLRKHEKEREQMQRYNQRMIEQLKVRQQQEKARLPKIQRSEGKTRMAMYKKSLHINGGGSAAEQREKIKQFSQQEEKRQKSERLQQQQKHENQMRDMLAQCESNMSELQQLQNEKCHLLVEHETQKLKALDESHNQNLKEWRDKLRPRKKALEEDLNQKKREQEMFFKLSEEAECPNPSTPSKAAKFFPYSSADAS

[5] = target: CDK2 (Homo sapiens, UniProt P24941)
[6] = target: T3, NEK2 (Homo sapiens, UniProt P51955)
T3 sequence (P51955 1-445): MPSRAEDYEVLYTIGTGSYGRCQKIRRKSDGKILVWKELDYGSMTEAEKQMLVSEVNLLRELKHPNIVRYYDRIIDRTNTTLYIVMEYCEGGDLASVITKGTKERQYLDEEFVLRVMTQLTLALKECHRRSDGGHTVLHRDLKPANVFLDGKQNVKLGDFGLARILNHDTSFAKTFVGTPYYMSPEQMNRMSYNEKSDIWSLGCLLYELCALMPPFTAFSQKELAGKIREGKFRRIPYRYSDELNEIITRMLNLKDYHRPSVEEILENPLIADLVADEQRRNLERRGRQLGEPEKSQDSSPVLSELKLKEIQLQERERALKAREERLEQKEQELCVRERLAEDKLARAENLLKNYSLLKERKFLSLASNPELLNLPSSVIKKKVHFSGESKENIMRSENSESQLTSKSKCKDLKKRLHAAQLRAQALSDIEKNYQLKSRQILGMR

[7] = target: BRAF (Homo sapiens, UniProt P15056)
Chain of BRAF (P15056 whole entry): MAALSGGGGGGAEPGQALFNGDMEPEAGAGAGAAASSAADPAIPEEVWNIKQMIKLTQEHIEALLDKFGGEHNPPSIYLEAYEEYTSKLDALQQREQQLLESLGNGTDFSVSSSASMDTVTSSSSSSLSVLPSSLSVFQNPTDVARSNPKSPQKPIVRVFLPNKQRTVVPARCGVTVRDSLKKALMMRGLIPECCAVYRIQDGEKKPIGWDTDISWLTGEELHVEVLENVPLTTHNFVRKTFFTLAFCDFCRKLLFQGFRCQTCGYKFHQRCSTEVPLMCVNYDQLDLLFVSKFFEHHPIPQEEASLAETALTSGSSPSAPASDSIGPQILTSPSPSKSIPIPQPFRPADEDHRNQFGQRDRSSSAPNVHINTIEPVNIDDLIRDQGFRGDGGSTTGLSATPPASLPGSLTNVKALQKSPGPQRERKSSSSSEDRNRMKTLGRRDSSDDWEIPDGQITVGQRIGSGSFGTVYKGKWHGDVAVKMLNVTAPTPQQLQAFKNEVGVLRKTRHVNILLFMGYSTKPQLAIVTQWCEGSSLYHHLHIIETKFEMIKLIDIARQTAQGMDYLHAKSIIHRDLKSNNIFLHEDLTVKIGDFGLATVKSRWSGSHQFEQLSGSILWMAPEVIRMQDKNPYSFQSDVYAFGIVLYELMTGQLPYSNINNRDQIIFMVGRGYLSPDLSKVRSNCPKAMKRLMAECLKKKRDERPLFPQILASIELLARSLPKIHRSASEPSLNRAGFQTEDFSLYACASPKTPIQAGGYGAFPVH

[8] = target: T4, Erk7 (Homo sapiens, UniProt Q8TD08)
T4 sequence (Q8TD08 1-544): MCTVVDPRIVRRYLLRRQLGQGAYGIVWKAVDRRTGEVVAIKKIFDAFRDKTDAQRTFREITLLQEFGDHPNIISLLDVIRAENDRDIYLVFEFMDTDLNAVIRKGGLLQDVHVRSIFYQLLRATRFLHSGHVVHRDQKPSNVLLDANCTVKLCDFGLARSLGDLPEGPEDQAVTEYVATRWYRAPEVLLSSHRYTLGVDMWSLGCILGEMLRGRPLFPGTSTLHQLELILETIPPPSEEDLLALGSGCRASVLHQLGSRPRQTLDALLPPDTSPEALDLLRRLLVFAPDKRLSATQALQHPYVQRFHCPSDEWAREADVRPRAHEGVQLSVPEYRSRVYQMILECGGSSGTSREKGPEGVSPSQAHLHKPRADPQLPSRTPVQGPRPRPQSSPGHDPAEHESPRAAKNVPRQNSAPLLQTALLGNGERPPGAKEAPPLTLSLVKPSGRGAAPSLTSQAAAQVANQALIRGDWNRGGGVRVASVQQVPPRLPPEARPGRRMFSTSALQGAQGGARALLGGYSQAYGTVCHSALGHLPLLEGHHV

ΔTm MRLW5 (20) [1]: 8.2 °C
ΔTm MRLW5 (20) [2]: -0.1 °C
ΔTm MRLW5 (20) [3]: 1.3 °C
ΔTm MRLW5 (20) [4]: 12.5 °C
ΔTm MRLW5 (20) [5]: 1.3 °C
ΔTm MRLW5 (20) [6]: 4.6 °C
ΔTm MRLW5 (20) [7]: 4.1 °C
Compound: CNc1ncc2cc(-c3ccc(-c4cccc(C)n4)cc3Cl)c(=O)n(CCCCN)c2n1 [compound 20, MRLW5]
ΔTm MRLW5 (20) [8]: 1.0 °C

ΔTm MR24 (24) [1]: 3.3 °C
ΔTm MR24 (24) [2]: -0.3 °C
ΔTm MR24 (24) [3]: 3.7 °C
ΔTm MR24 (24) [4]: -0.6 °C
ΔTm MR24 (24) [5]: 1.2 °C
ΔTm MR24 (24) [6]: 5.6 °C
ΔTm MR24 (24) [7]: 1.2 °C
Compound: Cc1cccc(-c2ccc(-c3cc4cnc(NC(CO)CO)nc4n(CCCCN)c3=O)c(Cl)c2)n1 [compound 24, 8-(4-Aminobutyl)-6-(2-chloro-4-(6-methylpyridin-2-yl)phenyl)-2-((1,3-dihydroxypropan-2-yl)amino)pyrido[2,3-d]pyrimidin-7(8H)-one]
ΔTm MR24 (24) [8]: -0.4 °C

ΔTm 23 [1]: 12.7 °C
ΔTm 23 [2]: -0.2 °C
ΔTm 23 [3]: 1.3 °C
ΔTm 23 [4]: 13.0 °C
ΔTm 23 [5]: 3.5 °C
ΔTm 23 [6]: 6.9 °C
ΔTm 23 [7]: 6.2 °C
Compound: CNc1ncc2cc(-c3ccc(-c4cccc(C)n4)cc3Cl)c(=O)n(C[C@H]3CC[C@H](N)CC3)c2n1 [compound 23, 23]
ΔTm 23 [8]: 4.2 °C

ΔTm 25 [1]: 5.8 °C
ΔTm 25 [2]: -0.6 °C
ΔTm 25 [3]: 3.2 °C
ΔTm 25 [4]: -0.7 °C
ΔTm 25 [5]: 4.9 °C
ΔTm 25 [6]: 8.8 °C
ΔTm 25 [7]: 5.2 °C
Compound: Cc1cccc(-c2ccc(-c3cc4cnc(NCCCc5ccc(N)cc5)nc4n(CCCCN)c3=O)c(Cl)c2)n1 [compound 25, 8-(4-Aminobutyl)-2-((3-(4-aminophenyl)propyl)amino)-6-(2-chloro-4-(6-methylpyridin-2-yl)phenyl)pyrido[2,3-d]pyrimidin-7(8H)-one]
ΔTm 25 [8]: 2.9 °C

ΔTm MR26 (26) [1]: 3.7 °C
ΔTm MR26 (26) [2]: -0.2 °C
ΔTm MR26 (26) [3]: 1.1 °C
ΔTm MR26 (26) [4]: -0.4 °C
ΔTm MR26 (26) [5]: 0.9 °C
ΔTm MR26 (26) [6]: 5.9 °C
ΔTm MR26 (26) [7]: 1.7 °C
Compound: Cc1cccc(-c2ccc(-c3cc4cnc(NCCCN5CCOCC5)nc4n(CCCCN)c3=O)c(Cl)c2)n1 [compound 26, MR26]
ΔTm MR26 (26) [8]: -0.4 °C

ΔTm 22 [1]: 5.8 °C
ΔTm 22 [2]: -0.4 °C
ΔTm 22 [3]: 3.3 °C
ΔTm 22 [4]: 11.4 °C
ΔTm 22 [5]: 2.5 °C
ΔTm 22 [6]: 6.6 °C
ΔTm 22 [7]: 6.3 °C
Compound: CNc1ncc2cc(-c3ccc(-c4cccc(C)n4)cc3Cl)c(=O)n(CCC3CCNCC3)c2n1 [compound 22, 6-(2-Chloro-4-(6-methylpyridin-2-yl)phenyl)-2-(methylamino)-8-(2-(piperidin-4-yl)ethyl)pyrido[2,3-d]pyrimidin-7(8H)-one]
ΔTm 22 [8]: 1.5 °C
